# Target: T1, human NEP (Homo sapiens, UniProt P08473)
# T1 construct: purchased R&D Systems, Minneapolis, Minn; 1182-ZN
# Assay: In vitro enzyme inhibition assay at human NEP (Assay 1)
# Type: biochemical
# Details: recombinant enzyme, fluorogenic peptide substrate, 37° C.
# Protocol: In Vitro Assays for the Quantitation of Inhibitor Potencies (IC50) at Human and Rat NEP, and Human ACE
# The inhibitory activities of compounds at human and rat neprilysin (EC 3.4.24.11; NEP) and human angiotensin converting enzyme (ACE) were determined using in vitro assays as described below.
# Recombinant human NEP and recombinant human ACE were obtained commercially (R&D Systems, Minneapolis, Minn., catalog numbers 1182-ZN and 929-ZN, respectively). The fluorogenic peptide substrate Mca-D-Arg-Arg-Leu-Dap-(Dnp)-OH (Medeiros et al. (1997) Braz. J. Med. Biol. Res. 30:1157-62; Anaspec, San Jose, Calif.) and Abz-Phe-Arg-Lys(Dnp)-Pro-OH (Araujo et al. (2000) Biochemistry 39:8519-8525; Bachem, Torrance, Calif.) were used in the NEP and ACE assays respectively.
# The assays were performed in 384-well white opaque plates at 37° C. using the fluorogenic peptide substrates at a concentration of 10 μM in Assay Buffer (NEP: 50 mM HEPES, pH 7.5, 100 mM NaCl, 0.01% polyethylene glycol sorbitan monolaurate (Tween-20), 10 μM ZnSO4; ACE: 50 mM HEPES, pH 7.5, 100 mM NaCl, 0.01% Tween-20, 1 μM ZnSO4).
# Test compounds were assayed over the range of concentrations from […] to 20 μM. Test compounds were added to the enzymes and incubated for 30 minute at 37° C. prior to initiating the reaction by the addition of substrate. Reactions were terminated after 20 minutes of incubation at 37° C. by the addition of glacial acetic acid to a final concentration of 3.6% (v/v).
# Plates were read on a fluorometer with excitation and emission wavelengths set to 320 nm and 405 nm, respectively. Inhibition constants were obtained by nonlinear regression of the data using the equation (GraphPad Software, Inc., San Diego, Calif.): v=v0/[1+(I/K′)] where v is the reaction rate, v0 is the uninhibited reaction rate, I is the inhibitor concentration and K′ is the apparent inhibition constant.
# Compounds of the invention were tested in this assay and found to have pKi values at human NEP as follows.
# T1 sequence (P08473 whole entry): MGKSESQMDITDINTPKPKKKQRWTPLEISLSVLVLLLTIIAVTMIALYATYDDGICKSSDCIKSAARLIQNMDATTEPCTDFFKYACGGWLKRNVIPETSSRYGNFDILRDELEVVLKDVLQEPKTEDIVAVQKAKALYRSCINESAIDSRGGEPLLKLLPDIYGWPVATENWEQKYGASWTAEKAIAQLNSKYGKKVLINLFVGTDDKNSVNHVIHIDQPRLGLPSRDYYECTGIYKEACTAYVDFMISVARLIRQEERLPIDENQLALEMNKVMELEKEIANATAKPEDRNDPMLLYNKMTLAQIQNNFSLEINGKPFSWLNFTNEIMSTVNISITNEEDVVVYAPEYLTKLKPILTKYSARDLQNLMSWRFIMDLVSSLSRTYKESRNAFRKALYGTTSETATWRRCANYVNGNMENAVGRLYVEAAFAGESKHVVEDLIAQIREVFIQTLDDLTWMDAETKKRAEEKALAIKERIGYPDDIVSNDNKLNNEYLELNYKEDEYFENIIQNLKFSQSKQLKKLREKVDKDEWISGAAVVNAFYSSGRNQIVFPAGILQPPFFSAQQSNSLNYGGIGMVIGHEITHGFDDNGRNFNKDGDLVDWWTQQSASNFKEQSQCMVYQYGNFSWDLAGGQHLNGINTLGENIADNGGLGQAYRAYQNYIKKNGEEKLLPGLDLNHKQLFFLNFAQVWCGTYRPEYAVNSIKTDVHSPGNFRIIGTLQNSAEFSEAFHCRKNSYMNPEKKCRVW
row,Compound,Ki [nM]
1,"Cc1cc(Cl)cc(-c2ccc(CN(C[C@H](O)C(=O)O)NC(=O)c3cc(O)no3)cc2)c1F [Example 8-23, (S)-3-[N-(5′-Chloro-2′-fluoro-3′-methyl-biphenyl-4-ylmethyl)-N′-(3-hydroxy-isoxazole-5-carbonyl)-hydrazino]-2-hydroxy-propionic acid]",1.26 to 10
2,"O=C(NN(Cc1ccc(-c2cccc(Cl)c2)cc1)C[C@@H](O)C(=O)O)c1cc(O)no1 [Example 3B, (R)-3-[N-(3′-Chlorobiphenyl-4-ylmethyl)-N′-(3-hydroxyisoxazole-5-carbonyl)-hydrazino]-2-hydroxypropionic Acid]",≤ 1
3,"O=C(NN(Cc1ccc(-c2cccc(Cl)c2)cc1)C[C@@H](O)C(=O)O)c1cc(-c2cccnc2)[nH]n1 [Example 4-9, (R)-3-[N-(3′-Chlorobiphenyl-4-ylmethyl)-N′-(5-pyridin-3-yl-1H-pyrazole-3-carbonyl)-hydrazino]-2-hydroxy-propionic acid]",1.26 to 10
4,"CC(C)CN(C)C(=O)c1cc(C(=O)NN(Cc2ccc(-c3ccccc3)cc2)C[C@@H](O)C(=O)O)[nH]n1 [Example 2-7, (R)-3-{N-Biphenyl-4-ylmethyl-N′-[5-(isobutylmethylcarbamoyl)-2H-pyrazole-3-carbonyl]hydrazino}-2-hydroxypropionic acid]",12.6 to 100
5,"O=C(NN(Cc1ccc(-c2ccccc2)cc1)C[C@@H](O)C(=O)O)c1cc(C(=O)N2CCCC2)n[nH]1 [Example 2-9, (R)-3-{N-Biphenyl-4-ylmethyl-N′-[5-(pyrrolidine-1-carbonyl)-2H-pyrazole-3-carbonyl]hydrazino}-2-hydroxypropionic acid]",1.26 to 10
6,"O=C(O)c1cc(C(=O)NN(Cc2ccc(-c3cccc(Cl)c3)cc2)C[C@@H](O)C(=O)O)ncn1 [Example 4-35, 6-[N′-((R)-2-Carboxy-2-hydroxy-ethyl)-N′-(3′-chlorobiphenyl-4-ylmethyl)-hydrazinocarbonyl]-pyrimidine-4-carboxylic acid]",≤ 1
7,"COCc1cc(C(=O)NN(Cc2ccc(-c3cccc(Cl)c3)cc2)C[C@@H](O)C(=O)O)[nH]n1 [Example 4-26, (R)-3-[N-(3′-Chlorobiphenyl-4-ylmethyl)-N′-(5-methoxymethyl-2H-pyrazole-3-carbonyl)-hydrazino]-2-hydroxy-propionic acid]",1.26 to 10
8,"CN(CC1CC1)C(=O)c1cc(C(=O)NN(Cc2ccc(-c3cccc(Cl)c3)cc2)C[C@@H](O)C(=O)O)[nH]n1 [Example 4-17, (R)-3-{N-(3′-Chlorobiphenyl-4-ylmethyl)-N′-[5-(cyclopropylmethyl-methyl-carbamoyl)-2H-pyrazole-3-carbonyl]-hydrazino}-2-hydroxy-propionic acid]",≤ 1
9,"O=C(NN(Cc1ccc(-c2cccc(Cl)c2)cc1)C[C@@H](O)C(=O)O)c1cc(C2CC2)[nH]n1 [Example 4-10, (R)-3-[N-(3′-Chlorobiphenyl-4-ylmethyl)-N′-(5-cyclopropyl-1H-pyrazole-3-carbonyl)-hydrazino]-2-hydroxy-propionic acid]",1.26 to 10
10,"Cc1ccc(Cl)cc1-c1ccc(CN(C[C@@H](O)C(=O)O)NC(=O)c2cn(O)nn2)cc1 [Example 8-80, (R)-3-[N-(5′-Chloro-2′-methyl-biphenyl-4-ylmethyl)-N′-(1-hydroxy-1H-[1,2,3]triazole-4-carbonyl)-hydrazino]-2-hydroxy-propionic acid]",≤ 1
11,"O=C(NN(Cc1ccc(-c2cccc(Cl)c2)cc1)C[C@@H](O)C(=O)O)c1cc(-c2ccccc2Cl)n[nH]1 [Example 4-15, (R)-3-{N-(3′-Chlorobiphenyl-4-ylmethyl)-N′-[5-(2-chlorophenyl)-2H-pyrazole-3-carbonyl]-hydrazino}-2-hydroxy-propionic acid]",≤ 1
12,"O=C(NN(Cc1ccc(-c2cc(Cl)ccc2F)cc1Cl)C[C@@H](O)C(=O)O)c1c[nH]nn1 [Example 10-10, (R)-3-[N-(3,5′-Dichloro-2′-fluoro-biphenyl-4-ylmethyl)-N′-(1H-[1,2,3]triazole-4-carbonyl)-hydrazino]-2-hydroxy-propionic acid]",≤ 1
13,"Cc1ccc(Cl)cc1-c1ccc(CN(C[C@@H](O)C(=O)O)NC(=O)c2nnn[nH]2)cc1 [Example 8-59, (R)-3-[N-(5′-Chloro-2′-methyl-biphenyl-4-ylmethyl)-N′-(1H-tetrazole-5-carbonyl)-hydrazino]-2-hydroxy-propionic acid]",≤ 1
14,"O=C(O)Cn1nc(C(=O)NN(Cc2ccc(-c3cc(Cl)ccc3F)cc2)C[C@@H](O)C(=O)O)cc1C1CC1 [Example 8-53, (R)-3-[N′-(1-Carboxymethyl-5-cyclopropyl-1H-pyrazole-3-carbonyl)-N-(5′-chloro-2′-fluoro-biphenyl-4-ylmethyl)-hydrazino]-2-hydroxy-propionic acid]",1.26 to 10
15,"O=C(NN(Cc1ccc(-c2cc(Cl)ccc2F)cc1)C[C@@H](O)C(=O)O)c1cc(O)n(-c2ccccn2)n1 [Example 8-51, (R)-3-[N-(5′-Chloro-2′-fluoro-biphenyl-4-ylmethyl)-N′-(5-hydroxy-1-pyridin-2-yl-1H-pyrazole-3-carbonyl)-hydrazino]-2-hydroxy-propionic acid]",1.26 to 10
16,"O=C(NC1CC1)c1cc(C(=O)NN(Cc2ccc(-c3ccccc3)cc2)C[C@@H](O)C(=O)O)[nH]n1 [Example 2-4, (R)-3-[N-Biphenyl-4-ylmethyl-N′-(5-cyclopropylcarbamoyl-2H-pyrazole-3-carbonyl)-hydrazino]-2-hydroxypropionic acid]",12.6 to 100
17,"CN(C)C(=O)c1cc(C(=O)NN(Cc2ccc(-c3ccccc3)cc2)C[C@@H](O)C(=O)O)[nH]n1 [Example 2-6, (R)-3-[N-Biphenyl-4-ylmethyl-N′-(5-dimethylcarbamoyl-2H-pyrazole-3-carbonyl)-hydrazino]-2-hydroxypropionic acid]",1.26 to 10
18,"Cc1cc(C(=O)NN(Cc2ccc(-c3cc(Cl)ccc3F)cc2)C[C@@H](O)C(=O)O)cc2[nH]nnc12 [Example 8-68, (R)-3-[N-(5′-Chloro-2′-fluoro-biphenyl-4-ylmethyl)-N′-(7-methyl-3H-benzotriazole-5-carbonyl)-hydrazino]-2-hydroxy-propionic acid]",1.26 to 10
19,"O=C(NN(Cc1ccc(-c2cccc(Cl)c2)cc1)C[C@@H](O)C(=O)O)c1nc(Cl)n[nH]1 [Example 4-1, (R)-3-[N-(3′-Chlorobiphenyl-4-ylmethyl)-N′-(5-chloro-2H-[1,2,4]triazole-3-carbonyl)-hydrazino]-2-hydroxy-propionic acid]",1.26 to 10
20,"O=C(NN(Cc1ccc(-c2cc(Cl)ccc2F)cc1)C[C@@H](O)C(=O)O)c1ccc(=O)[nH]n1 [Example 8-58, (R)-3-[N-(5′-Chloro-2′-fluoro-biphenyl-4-ylmethyl)-N′-(6-oxo-1,6-dihydro-pyridazine-3-carbonyl)-hydrazino]-2-hydroxy-propionic acid]",≤ 1
21,"O=C(NN(Cc1ccc(-c2cccc(Cl)c2)cc1F)C[C@@H](O)C(=O)O)c1cn(O)nn1 [Example 10-9, (R)-3-[N-(3′-Chloro-3-fluoro-biphenyl-4-ylmethyl)-N′-(1-hydroxy-1H-[1,2,3]triazole-4-carbonyl)-hydrazino]-2-hydroxy-propionic acid]",≤ 1
22,"O=C(NN(Cc1ccc(-c2cccc(O)c2)cc1)C[C@H](O)C(=O)O)c1cc(O)no1 [Example 5-3, (S)-2-Hydroxy-3-[N-(3′-hydroxy-biphenyl-4-ylmethyl)-N′-(3-hydroxy-isoxazole-5-carbonyl)-hydrazino]-propionic acid]",1.26 to 10
23,"N#Cc1cc(-c2cccc(Cl)c2)ccc1CN(C[C@@H](O)C(=O)O)NC(=O)c1cc(O)no1 [Example 10-2, (R)-3-[N-(3′-Chloro-3-cyano-biphenyl-4-ylmethyl)-N′-(3-hydroxy-isoxazole-5-carbonyl)-hydrazino]-2-hydroxy-propionic acid]",1.26 to 10
24,"O=C(NN(Cc1ccc(-c2cccc(Cl)c2)cc1)C[C@@H](O)C(=O)O)c1cc(C(=O)N2CC(F)C2)n[nH]1 [Example 4-18, (R)-3-{N-(3′-Chlorobiphenyl-4-ylmethyl)-N′-[5-(3-fluoroazetidine-1-carbonyl)-2H-pyrazole-3-carbonyl]-hydrazino}-2-hydroxy-propionic acid]",≤ 1
25,"O=C(NN(Cc1ccc(-c2ccccc2)cc1)C[C@@H](O)C(=O)O)c1cc(C(=O)O)n(Cc2c(F)cc(Cl)cc2F)n1 [Example 2-17, 5-[N′-Biphenyl-4-ylmethyl-N′-((R)-2-carboxy-2-hydroxyethyl)-hydrazinocarbonyl]-2-(4-chloro-2,6-difluorobenzyl)-2H-pyrazole-3-carboxylic acid]",12.6 to 100
26,"COc1ccccc1-c1ccc(CN(C[C@@H](O)C(=O)O)NC(=O)c2cc(O)no2)cc1 [Example 5-5, (R)-2-Hydroxy-3-[N′-(3-hydroxy-isoxazole-5-carbonyl)-N-(2′-methoxy-biphenyl-4-ylmethyl)-hydrazino]-propionic acid]",1.26 to 10

# Reference: patent US9873696B2, “Neprilysin inhibitors” (THERAVANCE BIOPHARMA R&D IP, LLC, priority 2010, dated 2018)
